Source: patent US4985547A, “External skin care preparation” (Kao Corporation, priority 1987, dated 1991)

Key:
skin roughness = test: Score of skin roughness, visual ranking after two-week coating on cheeks; type: in vivo, women; settings: compound 1.0 wt. %, average, 0 = none, 4 = severe
Text: (§1) Compounds Ia1 -Ia18 prepared respectively in Referential Examples 1, 2 and 3 and following the procedures of these referential examples, compounds Ib1 -Ib5 prepared respectively in Referential Example 4 and following the procedure of the referential example, compounds Id1 -Id5 prepared respectively in Referential Example 5 and following the procedure of the referential example, compounds Ie1 -Ie4 prepared respectively in Referential Examples 6-9, and conventional compounds Ic1 -Ic13, Ie5 -Ie14 and II1 -II12 were used separately. Mixtures (Invention Products 1), each of which had been formulated by mixing vaseline and the compound (I or II) at a weight ratio of 3:1, and vaseline (Comparative Product 1) were evaluated in skin conductance and skin roughness by the following methods.
(§2) Chosen as volunteers in winter were 10 women of 20-50 years of old who had skin roughness on their both cheeks. Different external skin care preparations were coated separately on the left and right cheeks of each volunteer for two weeks. On the following day of the completion of the two-week coating test, tests were conducted with respect to the following properties.
Skin roughness was observed visually and ranked in accordance with the following standard. Each score was indicated by an average value.
Score Ranking of skin roughness
0 No skin roughness was observed.
1 Slight skin roughness was observed.
2 Skin roughness was observed.
3 Rather severe skin roughness was observed.
4 Severe skin roughness was observed.
Using separately the compounds used in Example 1, external skin care preparations (emulsified cosmetic preparations) of their corresponding compositions shown below in Table 2 were formulated. Their effects for the improvement of skin roughness were evaluated in the same manner as in Example 1.

horny layer = test: Skin conductance (water content of horny layer) after two-week coating on cheeks; type: in vivo, women; parameters: key: conductance meter reading; ≤5 = severe roughness, ≥20 = no roughness; settings: Invention Product 1: vaseline and compound 3:1 by weight; two weeks; 20° C., 40% humidity; 5 and smaller = severe roughness, 20 or greater = no substantial roughness
Text: as §1, §2
After washing the face with warm water of 37° C., each volunteer was allowed to rest for 20 minutes in a room which was air-conditioned at 20° C. and 40% humidity. The water content of their horny layer was measured by a skin conductance meter (manufactured by IBS Company). A smaller conductance value indicates greater skin roughness. Conductance values of 5 and smaller indicate severe skin roughness. On the contrary, no substantial skin roughness is observed where this value is 20 or greater.

[1] = Invention product 2: emulsified cosmetic, glyceryl ether 2.0 wt. %
[2] = Invention product 3: emulsified cosmetic, arginine monocetylphosphate 2.0 wt. %
[3] = Invention product 4: emulsified cosmetic, polyoxyethylene (20) sorbitan stearate 1.0 and sorbitan monostearate 1.0 wt. %

| SMILES | Score of skin roughness (skin roughness; [1]) | Score of skin roughness (skin roughness; [2]) | Score of skin roughness (skin roughness; [3]) | Skin conductance (horny layer) |
| --- | --- | --- | --- | --- |
| CCCCCCCCCCCCCCCCCCOCC(O)CN(CC(=O)O)CC(O)COCCCCCCCCCCCCCCCCCC (centres unmarked) [Compound II8] | 0.2 | 0.4 | 0.8 | 20 |
| CCCCCCCCCCCCCCCCCCOCC(O)CN(CC(O)CO)C(=O)CCCCCCCCC (centres unmarked) [Compound Ia12] | 0.3 | 0.5 | 0.9 | 18 |
| CCCCCCCCCCCCCCCCOCC(O)CN(C(=O)CCCCCCCCCCCCCCC)C(CCSC)C(=O)O (centres unmarked) [Compound Ic9] | 0.5 | 0.7 | 1.0 | 16 |
| CCCCCCCCCCOCC(O)CN(CCCO)C(=O)CCCCCCCCC (centres unmarked) [Compound Ia3] | 0.7 | 1.0 | 1.3 | 10 |
| CCCCCCCCCCCCCCCCOCC(O)CN(CC(O)CO)C(=O)CCCCCCCCCCCCCCC (centres unmarked) [Compound Ia10, N-(3-hexadecyloxy-2-hydroxypropyl)-N-2,3-dihydroxypropylhexadecanamide] | 0.1 | 0.3 | 0.6 | 22 |
| CCCCCCCCCCCCCCCCCC(=O)N(CC(=O)O)CC(O)COCCCCCCCCCCCCCC (centres unmarked) [Compound Ic2] | 0.6 | 0.8 | 1.1 | 15 |
| CCCCCCCCCCCCCCCCCCOCC(O)CN(C(=O)CCCCCCCCCCCCCCCCC)C(C)(CO)CO (centres unmarked) [Compound Ia14] | 0.1 | 0.3 | 0.6 | 23 |
| CCCCCCCCCCCCCCCCCC(=O)N(CCO)CC(O)CCCCCCCCCC (centres unmarked) [Compound Id4] | 0.3 | 0.5 | 0.8 | 17 |
| CCCCCCCCCCCCCCCCCC(=O)N(CC(=O)O)CC(O)CCCCCCCCCCCCCCCC (centres unmarked) [Compound Ic3] | 1.0 | 1.3 | 1.6 | 11 |
| CCCCCCCCCCCCCCCCOCC(O)CN(CCO[C@@H]1O[C@H](CO)[C@@H](O)[C@H](O)[C@H]1NC(C)=O)C(=O)CCCCCCCCCCCCCCC (some centres unmarked) [Compound Ie3] | 0.3 | 0.4 | 0.7 | 31 |
| CCCCCCCCCCCCCCCCCCOCC(O)CN(CC(O)COCCCCCCCCCCCCCCCCCC)C(C)=O (centres unmarked) [Compound II12] | 0.2 | 0.4 | 0.8 | 20 |
| CCCCCCCCCCCCCCCCCCOCC(O)CN(CCCCCCO)C(=O)CCCCCCCCCCCCCCCCC (centres unmarked) [Compound Ia9] | 0.2 | 0.4 | 0.9 | 20 |
| CCCCCCCCCCCCCCCCOCC(O)CN(CCCCCCO)C(=O)CCCCCCCCCCCCCCC (centres unmarked) [Compound Ia2, N-(3-hexadecylocy-2-hydroxypropyl)-N-6-hydroxyhexylhexadecanamide] | 0.3 | 0.5 | 1.0 | 18 |
| CCCCCCCCCCCCCCCCOCC(O)CN(CCOC1O[C@H](CO)[C@@H](O)[C@H](O)[C@H]1O)C(=O)CCCCCCCCCCCCCCC (some centres unmarked) [Compound Ie1, N-(3-hexadecyloxy-2-hydroxypropyl)-N-(2-O-glucopyranosyl)ethylhexadecanamide] | 0.4 | 0.6 | 0.9 | 25 |
| CCCCCCCCCCCCCCCCOCC(O)CN(C(=O)CCCCCCCCCCCCCCC)C(Cc1ccccc1)C(=O)O (centres unmarked) [Compound Ic6] | 0.9 | 1.2 | 1.5 | 12 |
| CCCCCCCCCCCCCCCCCCOCC(O)CN(CCO)CC(O)COCCCCCCCCCC (centres unmarked) [Compound II3] | 0.5 | 0.8 | 1.1 | 11 |
| CCCCCCCCCCCCCCCCOCC(O)CN(CC(=O)O)CC(O)COCCCCCCCCCCCCCCCC (centres unmarked) [Compound II9] | 0.1 | 0.3 | 0.9 | 17 |
| CCCCCCCCCCCCCCCCOCC(O)CN(C(=O)CCCCCCCCCCCCCCC)C(Cc1c[nH]c2ccccc12)C(=O)O (centres unmarked) [Compound Ic13] | 1.1 | 1.4 | 1.7 | 10 |
| CCCCCCCCCCCCCCCCCCOCC(O)CN(CCCO)C(=O)CCCCCCCCCCCCCCCCC (centres unmarked) [Compound Ia6] | 0.1 | 0.3 | 0.7 | 23 |
| CCCCCCCCCCCCCCCCCC(=O)N(CC(O)CO)CC(O)COCCCCCCCCCC (centres unmarked) [Compound Ia11] | 0.3 | 0.5 | 0.8 | 19 |
| CCCCCCCCCCOCC(O)CN(CCOP(=O)(O)OCCNCCc1ccccc1)C(=O)CCCCCCCCC (centres unmarked) [Compound Ie10] | 1.0 | 1.2 | 1.8 | 11 |
| CCCCCCCCCCCCCCCCOCC(O)CN(C(=O)CCCCCCCCCCCCCCC)C(CCC(=O)O)C(=O)O (centres unmarked) [Compound Ic11] | 0.8 | 1.0 | 1.3 | 13 |
| CCCCCCCCCCCCCCCCOCC(O)CN(CCCO)C(=O)CCCCCCCCCCCCCCC (centres unmarked) [Compound Ia1, N-(3-hexadecyloxy-2-hydroxypropyl)-N-3-hydroxypropylhexadecanamide] | 0.2 | 0.4 | 0.8 | 20 |
| CCCCCCCCCCOCC(O)CN(CCO)CC(O)COCCCCCCCCCC (centres unmarked) [Compound II2] | 0.8 | 1.0 | 1.2 | 8 |
| CCCCCCCCCCCCCCCCCC(=O)N(CCOP(=O)([O-])OCC[N+](CC)(CC)CC)CC(O)COCCCCCCCCCCCCCC (centres unmarked) [Compound Ie9] | 0.6 | 0.6 | 1.0 | 18 |
| CCCCCCCCCCCCCCCCCCOCC(O)CN(CCO)CC(O)COCCCCCCCCCCCCCCCCCC (centres unmarked) [Compound II4] | 0.1 | 0.3 | 0.7 | 21 |
| CCCCCCCCCCCCCCCCOCC(O)CN(CCOP(=O)([O-])OCC[N+](C)(C)C)C(=O)CCCCCCCCCCCCCCC (centres unmarked) [Compound Ie7] | 0.5 | 0.7 | 1.0 | – |
